From US12673043B2, “Use of inhibitors of the activator protein 1 (AP-1) for preventing adhesions” (The Board of Trustees of the Leland Stanford Junior …, priority 2020, dated 2026)

Assays:
[1] = tested on: abdominal adhesion formation; assay: Mouse model for abdominal adhesions, gross and histologic scoring of adhesion tissue; assay type: in vivo; conditions: local application at surgery, JUN and wild-type mice
Description: (§1) Mouse Model for Adhesions. A similar model for abdominal adhesion formation has been described previously by our laboratory. In brief, mice were anesthetized with inhaled isoflurane (Henry Schein Animal Health,) at a concentration of 1-2% in oxygen at 3 L/min. Ophthalmic ointment (Puralube petrolatum, Dechra Veterinary Products) was applied to the cornea to prevent desiccation. Buprenorphine (Buprenex, Reckitt Benckiser Pharmaceuticals Inc.) was administered subcutaneously prior to the surgery at a dose of 0.1 mg/kg. The mice were placed in the supine position on a clean operating surface. A heating pad was used beneath the surgical field to keep the animals warm throughout the procedure. The abdomens were shaved, and the skin of the abdomen was sterilized with three applications of betadine followed by 70% ethanol. During the procedure, the respiratory rate of the animals was monitored, and the isoflurane was titrated accordingly. A vertical midline skin incision was made in the abdomen with sharp scissors. The underlying abdominal wall was then opened vertically. The cecum was located and exteriorized. The cecal wall was abraded gently with 150-grit sandpaper. […] The animals were monitored during recovery from anesthesia. […]

[2] = tested on: phospho-JUN; assay: In vitro T-5224 treatment of freshly isolated mouse adhesion fibroblasts, phospho-flow cytometry; assay type: cell-based; conditions: T-5224 10 μM, 24 hours, versus vehicle control (FIG. 22a)
Excerpt: (§2) Recruitment of Human Specimens. Human abdominal adhesion and control specimens were obtained at the Stanford Hospital under Stanford University's IRB approval. Clinical inclusion criteria were as follows: For adhesion specimens—patients must have had at least one prior abdominal surgery, for control specimens—patients must have had no history of prior abdominal surgery. For all patients, surgery must be elective, and there must be no evidence of active inflammation/infection at time of operation. Written, informed consent was obtained from the patient in the pre-op holding area prior to surgery. Tissue was collected in the operating room, placed directly into sterile saline, and kept on ice for transport. Sample preparation and FACS isolation. Adhesion or control tissue from mouse or human specimens was minced on ice. The tissue was then digested for 60 minutes in a 37° C. water bath agitator in 2 mg/mL collagenase (collagenase type IV, ThermoFisher) digest buffer in Medium 199 (HyClone, GE Healthcare) consisting of 5% fetal bovine serum (Gibco FBS, ThermoFisher), DNase I (Worthington), Poloxamer 188 (Cat. P5556-100ML, Sigma), HEPES, and CaCl2. […] Cells were counted and re-suspended in FACS buffer. […]

[3] = tested on: phospho-STAT5; assay: as above; assay type: cell-based; conditions: T-5224 10 μM, 24 hours, versus vehicle control (FIG. 22a)
Excerpt: as §2

[4] = tested on: phospho-JUN; assay: In vivo JUN suppression in mouse adhesion model, phospho-flow cytometry of adhesion fibroblasts; conditions: applied intra-abdominally (10 uM in DMSO, locally at time of adhesion surgery), wild-type and JUN mice, 24 hours, versus vehicle control (FIG. 5d, 22b)
Description: (§3) Mouse Model for Adhesions. A similar model for abdominal adhesion formation has been described previously by our laboratory. In brief, mice were anesthetized with inhaled isoflurane (Henry Schein Animal Health,) at a concentration of 1-2% in oxygen at 3 L/min. Ophthalmic ointment (Puralube petrolatum, Dechra Veterinary Products) was applied to the cornea to prevent desiccation. Buprenorphine (Buprenex, Reckitt Benckiser Pharmaceuticals Inc.) was administered subcutaneously prior to the surgery at a dose of 0.1 mg/kg. The mice were placed in the supine position on a clean operating surface. A heating pad was used beneath the surgical field to keep the animals warm throughout the procedure. The abdomens were shaved, and the skin of the abdomen was sterilized with three applications of betadine followed by 70% ethanol. During the procedure, the respiratory rate of the animals was monitored, and the isoflurane was titrated accordingly. A vertical midline skin incision was made in the abdomen with sharp scissors. The underlying abdominal wall was then opened vertically. The cecum was located and exteriorized. The cecal wall was abraded gently with 150-grit sandpaper. The parietal peritoneum along the abdominal wall was similarly abraded with sandpaper and three, single, interrupted, 4-0, silk sutures were placed into the right abdominal sidewall, which served as a nidus for adhesion formation. The cecum was then placed anatomically adjacent to the right abdominal wall. The abdomen was briefly irrigated with warmed, sterile, normal saline. The irrigant was removed by blotting with a gauze sponge. The abdominal wall incision was closed with running 6-0 Monocryl suture, and the skin incision was closed with 6-0 nylon, horizontal mattress sutures. The animals were monitored during recovery from anesthesia. Additional buprenorphine was given every 6-12 hours as needed for pain. For sham surgery, animals were treated in an identical manner; however, incisions were closed without manipulation of abdominal organs.
(§4) In Vivo JUN Induction and Suppression. Doxycycline (2 mg/mL) or T-5224 (Cayman Chem, 10 uM) resuspended in DMSO were applied locally to adhesion sites at the time of adhesion surgery for JUN induction (in JUN mice) or suppression (in JUN and WT mice), respectively. Vehicle only was used for control.
(§5) Recruitment of Human Specimens. Human abdominal adhesion and control specimens were obtained at the Stanford Hospital under Stanford University's IRB approval. Clinical inclusion criteria were as follows: For adhesion specimens—patients must have had at least one prior abdominal surgery, for control specimens—patients must have had no history of prior abdominal surgery. […] Cells were counted and re-suspended in FACS buffer. […]

[5] = tested on: phospho-STAT5; assay: as above; conditions: applied intra-abdominally (10 uM in DMSO, locally at time of adhesion surgery), wild-type and JUN mice, 24 hours, versus vehicle control (FIG. 5d, 22b)
Description: as §3, §4, §5

[6] = tested on: phospho-JUN; assay: Immunofluorescent staining of adhesion tissue after in vivo JUN inhibition; design: species or system mouse; conditions: IF staining of adhesion tissue, JUN mice induced with doxycycline, versus vehicle control (FIG. 6e-f)
Description: as §1

[7] = tested on: PDGFRA; assay: as above; design: species or system mouse; conditions: IF staining of adhesion tissue, JUN mice induced with doxycycline (FIG. 6e)
Description: as §1

SMILES: O=C(O)CCc1cc(C(=O)c2ccc(OC3CCCC3)cc2O)ccc1OCc1ccc2c(=O)[nH]oc2c1 [T-5224, 3-[5-(4-Cyclopentyloxy-2-hydroxybenzoyl)-2-[(3-oxo-1,2-benzoxazol-6-yl)methoxy]phenyl]propanoic acid]
- adhesions, histologic assessment ([1]; H&E and trichrome, versus vehicle control (FIG. 6a-d)): significantly thinner and less fibrotic
- adhesion formation, gross assessment ([1]; POD3, versus vehicle control (FIG. 5e-f)): dramatic decrease
- phospho-JUN expression [2]: significantly reduced
- phospho-STAT5 expression [3]: significantly reduced
- phospho-JUN expression [4]: significantly decreased
- phospho-JUN expression ([4]; listed as JUN inhibitor): significant decrease
- phospho-STAT5 expression [5]: significantly decreased
- phospho-STAT5 expression ([5]; listed as JUN inhibitor): significant decrease
- JUN expression at the tissue level (p-JUN+ cells) [6]: decreased
- PDGFRA expression in adhesion tissue [7]: Co-suppression
